Measurements: ChEMBL document CHEMBL3112450, “Synthesis and in vitro antitumor evaluation of primary amine substituted quinazoline linked benzimidazole” (Bioorg Med Chem Lett, 2014)

Experiments:
Type in all cases: functional
[1] = tested on: NCI-H23; test: Cytotoxicity against human NCI-H23 cells after 48 hrs by SRB assay; settings: NCI-H23, 48 h
[2] = tested on: HL-60(TB); test: Cytotoxicity against human HL-60(TB) cells after 48 hrs by SRB assay; settings: HL-60, 48 h
[3] = tested on: TK-10; test: Cytotoxicity against human TK10 cells assessed as cell growth at 10^-4 M after 48 hrs by SRB assay; settings: TK-10, 48 h, read-out: Activity
[4] = tested on: SN12C; test: Cytotoxicity against human SN12C cells assessed as cell growth at 10^-4 M after 48 hrs by SRB assay; settings: read-out: Activity
[5] = tested on: M14; test: Cytotoxicity against human M14 cells assessed as cell growth at 10^-7 M after 48 hrs by SRB assay; settings: M14, 48 h, read-out: Activity
[6] = tested on: NCI-H23; test: Cytotoxicity against human NCI-H23 cells assessed as cell growth at 10^-7 M after 48 hrs by SRB assay; settings: NCI-H23, 48 h, read-out: Activity
[7] = tested on: HOP-92; test: Cytotoxicity against human HOP92 cells assessed as cell growth at 10^-7 M after 48 hrs by SRB assay; settings: HOP-92, 48 h, read-out: Activity
[8] = tested on: DU-145; test: Cytotoxicity against human DU145 cells assessed as cell growth at 10^-8 M after 48 hrs by SRB assay; settings: DU-145, 48 h, read-out: Activity
[9] = tested on: TK-10; test: Cytotoxicity against human TK10 cells assessed as cell growth at 10^-8 M after 48 hrs by SRB assay; settings: TK-10, 48 h, read-out: Activity
[10] = tested on: SK-MEL-2; test: Cytotoxicity against human SK-MEL-2 cells assessed as cell growth at 10^-4 M after 48 hrs by SRB assay; settings: SK-MEL-2, 48 h, read-out: Activity
[11] = tested on: U-251; test: Cytotoxicity against human U251 cells assessed as cell growth at 10^-4 M after 48 hrs by SRB assay; settings: U-251, 48 h, read-out: Activity
[12] = tested on: SF-268; test: Cytotoxicity against human SF268 cells assessed as cell growth at 10^-4 M after 48 hrs by SRB assay; settings: SF-268, 48 h, read-out: Activity
[13] = tested on: SW-620; test: Cytotoxicity against human SW620 cells assessed as cell growth at 10^-4 M after 48 hrs by SRB assay; settings: SW-620, 48 h, read-out: Activity
[14] = tested on: COLO 205; test: Cytotoxicity against human COLO205 cells assessed as cell growth at 10^-4 M after 48 hrs by SRB assay; settings: COLO 205, 48 h, read-out: Activity
[15] = tested on: NCI-H460; test: Cytotoxicity against human NCI-H460 cells assessed as cell growth at 10^-4 M after 48 hrs by SRB assay; settings: NCI-H460, 48 h, read-out: Activity
[16] = tested on: NCI-H226; test: Cytotoxicity against human NCI-H226 cells assessed as cell growth at 10^-4 M after 48 hrs by SRB assay; settings: NCI-H226, 48 h, read-out: Activity
[17] = Cytotoxicity against human NCI-ADR-RES cells assessed as cell growth at 10^-8 M after 48 hrs by SRB assay; settings: read-out: Activity
[18] = tested on: HCT-116; test: Cytotoxicity against human HCT116 cells assessed as cell growth at 10^-8 M after 48 hrs by SRB assay; settings: HCT-116, 48 h, read-out: Activity
[19] = tested on: HCC 2998; test: Cytotoxicity against human HCC2998 cells assessed as cell growth at 10^-8 M after 48 hrs by SRB assay; settings: HCC 2998, 48 h, read-out: Activity
[20] = tested on: K562; test: Cytotoxicity against human K562 cells assessed as cell growth at 10^-8 M after 48 hrs by SRB assay; settings: K562, 48 h, read-out: Activity
[21] = tested on: CCRF-CEM; test: Cytotoxicity against human CCRF-CEM cells assessed as cell growth at 10^-8 M after 48 hrs by SRB assay; settings: read-out: Activity
[22] = tested on: DU-145; test: Cytotoxicity against human DU145 cells after 48 hrs by SRB assay; settings: DU-145, 48 h
[23] = tested on: ACHN; test: Cytotoxicity against human ACHN cells after 48 hrs by SRB assay
[24] = tested on: A498; test: Cytotoxicity against human A498 cells after 48 hrs by SRB assay; settings: A498, 48 h
[25] = Cytotoxicity against human NCI-ADR-RES cells after 48 hrs by SRB assay
[26] = tested on: MDA-MB-435; test: Cytotoxicity against human MDA-MB-435 cells after 48 hrs by SRB assay; settings: MDA-MB-435, 48 h
[27] = tested on: BT-549; test: Cytotoxicity against human BT549 cells assessed as cell growth at 10^-6 M after 48 hrs by SRB assay; settings: BT-549, 48 h, read-out: Activity
[28] = tested on: OVCAR-8; test: Cytotoxicity against human OVCAR8 cells assessed as cell growth at 10^-6 M after 48 hrs by SRB assay; settings: OVCAR-8, 48 h, read-out: Activity
[29] = tested on: IGROV-1; test: Cytotoxicity against human IGROV1 cells assessed as cell growth at 10^-6 M after 48 hrs by SRB assay; settings: IGROV-1, 48 h, read-out: Activity
[30] = tested on: Malme-3M; test: Cytotoxicity against human MALME-3M cells assessed as cell growth at 10^-6 M after 48 hrs by SRB assay; settings: read-out: Activity
[31] = tested on: SF-539; test: Cytotoxicity against human SF539 cells assessed as cell growth at 10^-6 M after 48 hrs by SRB assay; settings: SF-539, 48 h, read-out: Activity
[32] = tested on: HT-29; test: Cytotoxicity against human HT-29 cells assessed as cell growth at 10^-6 M after 48 hrs by SRB assay; settings: HT-29, 48 h, read-out: Activity
[33] = tested on: HCT-15; test: Cytotoxicity against human HCT15 cells assessed as cell growth at 10^-6 M after 48 hrs by SRB assay; settings: HCT-15, 48 h, read-out: Activity
[34] = tested on: MOLT-4; test: Cytotoxicity against human MOLT4 cells assessed as cell growth at 10^-6 M after 48 hrs by SRB assay; settings: MOLT-4, 48 h, read-out: Activity
[35] = tested on: HL-60(TB); test: Cytotoxicity against human HL-60(TB) cells assessed as cell growth at 10^-6 M after 48 hrs by SRB assay; settings: HL-60, 48 h, read-out: Activity
[36] = Cytotoxicity against human Hs578T cells assessed as cell growth at 10^-7 M after 48 hrs by SRB assay; settings: Hs-578T, read-out: Activity
[37] = tested on: A498; test: Cytotoxicity against human A498 cells assessed as cell growth at 10^-7 M after 48 hrs by SRB assay; settings: A498, 48 h, read-out: Activity
[38] = Cytotoxicity against human OVCAR5 cells assessed as cell growth at 10^-7 M after 48 hrs by SRB assay; settings: OVCAR-5, 48 h, read-out: Activity

C=CCn1c(C)nc2cc(Nc3nc(Nc4ccc5nc(C)n(CC=C)c5c4)c4ccccc4n3)ccc21
GI50 [1]: 2.05 µM | TGI [1]: 4.2 µM | GI50 [2]: 1.78 µM | TGI [2]: 3.65 µM | growth at 100 µM [3]: -63% | growth at 100 µM [4]: -22% | growth at 0.1 µM [5]: 98% | growth at 0.1 µM [6]: 93% | growth at 0.1 µM [7]: 91% | growth at 0.01 µM [8]: 99% | growth at 0.01 µM [9]: 96% | growth at 100 µM [10]: -17% | growth at 100 µM [11]: -31% | growth at 100 µM [12]: -82% | growth at 100 µM [13]: -8% | growth at 100 µM [14]: -6% | growth at 100 µM [15]: 1% | growth at 100 µM [16]: -12% | growth at 0.01 µM [17]: 103% | growth at 0.01 µM [18]: 106% | growth at 0.01 µM [19]: 99% | growth at 0.01 µM [20]: 103% | growth at 0.01 µM [21]: 105% | GI50 [22]: 0.402 µM | LC50 (50% lethal concentration) [22]: 3.76 µM | TGI [22]: 1.41 µM | GI50 [23]: 0.61 µM | TGI [23]: 1.83 µM | GI50 [24]: 1.66 µM | LC50 [24]: 5.5 µM | TGI [24]: 3.03 µM | GI50 [25]: 1.84 µM | LC50 [25]: > 100 µM | TGI [25]: 4.43 µM | GI50 [26]: 0.532 µM | TGI [26]: 1.82 µM | growth at 1 µM [27]: 93% | growth at 1 µM [28]: -11% | growth at 1 µM [29]: 82% | growth at 1 µM [30]: 120% | growth at 1 µM [31]: 56% | growth at 1 µM [32]: -87% | growth at 1 µM [33]: 12% | growth at 1 µM [34]: -23% | growth at 1 µM [35]: 90% | growth at 0.1 µM [36]: 96% | growth at 0.1 µM [37]: 100% | growth at 0.1 µM [38]: 95%

C=CCn1c(C)nc2ccc(Nc3nc(Nc4ccc(F)cc4)nc4ccccc34)cc21
GI50 [1]: 4.23 µM | LC50 (concentration giving 50% net cell kill) [1]: > 100 µM | TGI [1]: 26 µM | GI50 [2]: 4.95 µM | LC50 [2]: > 100 µM | TGI [2]: 23.3 µM | growth at 100 µM [3]: -63% | growth at 100 µM [4]: -49% | growth at 0.1 µM [5]: 97% | growth at 0.1 µM [6]: 87% | growth at 0.1 µM [7]: 80% | growth at 0.01 µM [8]: 100% | growth at 0.01 µM [9]: 99% | growth at 100 µM [10]: -70% | growth at 100 µM [11]: -80% | growth at 100 µM [12]: -59% | growth at 100 µM [13]: -48% | growth at 100 µM [14]: -28% | growth at 100 µM [15]: -55% | growth at 100 µM [16]: -5% | growth at 0.01 µM [17]: 100% | growth at 0.01 µM [18]: 99% | growth at 0.01 µM [19]: 95% | growth at 0.01 µM [20]: 102% | growth at 0.01 µM [21]: 99% | GI50 [22]: 8.63 µM | LC50 (50% lethal concentration) [22]: 54.7 µM | TGI [22]: 22.8 µM | GI50 [23]: 1.99 µM | LC50 [23]: 9.33 µM | TGI [23]: 4.31 µM | GI50 [24]: 4.36 µM | LC50 [24]: 69 µM | TGI [24]: 24.1 µM | GI50 [25]: 4.01 µM | LC50 [25]: > 100 µM | TGI [25]: 37.7 µM | GI50 [26]: 4 µM | LC50 (concentration killing 50% of cells) [26]: 92.4 µM | TGI [26]: 20.4 µM | growth at 1 µM [27]: 82% | growth at 1 µM [28]: 93% | growth at 1 µM [29]: 91% | growth at 1 µM [30]: 101% | growth at 1 µM [31]: 89% | growth at 1 µM [32]: 91% | growth at 1 µM [33]: 91% | growth at 1 µM [34]: 73% | growth at 1 µM [35]: 104% | growth at 0.1 µM [36]: 99% | growth at 0.1 µM [37]: 83% | growth at 0.1 µM [38]: 101%

C=CCn1c(C)nc2ccc(Nc3nc(Nc4ccc5nc(C)n(CC=C)c5c4)c4ccccc4n3)cc21
GI50 [1]: 1.72 µM | TGI [1]: 3.23 µM | GI50 [2]: 1.86 µM | TGI [2]: 3.72 µM | growth at 100 µM [3]: -49% | growth at 100 µM [4]: -50% | growth at 0.1 µM [5]: 94% | growth at 0.1 µM [6]: 91% | growth at 0.1 µM [7]: 86% | growth at 0.01 µM [8]: 102% | growth at 0.01 µM [9]: 100% | growth at 100 µM [10]: -25% | growth at 100 µM [11]: -22% | growth at 100 µM [12]: -33% | growth at 100 µM [13]: -17% | growth at 100 µM [14]: -18% | growth at 100 µM [15]: -28% | growth at 100 µM [16]: -38% | growth at 0.01 µM [17]: 99% | growth at 0.01 µM [18]: 108% | growth at 0.01 µM [19]: 92% | growth at 0.01 µM [20]: 96% | growth at 0.01 µM [21]: 97% | GI50 [22]: 1.85 µM | LC50 (50% lethal concentration) [22]: 5.79 µM | TGI [22]: 3.27 µM | GI50 [23]: 1.64 µM | LC50 [23]: 5.51 µM | TGI [23]: 3.01 µM | GI50 [24]: 0.442 µM | TGI [24]: 2.08 µM | GI50 [25]: 2.22 µM | LC50 [25]: > 100 µM | TGI [25]: 6.07 µM | GI50 [26]: 1.73 µM | TGI [26]: 3.33 µM | growth at 1 µM [27]: 86% | growth at 1 µM [28]: 80% | growth at 1 µM [29]: 99% | growth at 1 µM [30]: 98% | growth at 1 µM [31]: 94% | growth at 1 µM [32]: 101% | growth at 1 µM [33]: 91% | growth at 1 µM [34]: 73% | growth at 1 µM [35]: 95% | growth at 0.1 µM [36]: 96% | growth at 0.1 µM [37]: 64% | growth at 0.1 µM [38]: 91%
